This note sets out measurements from ChEMBL document CHEMBL3132769, “Fragment growing to retain or alter the selectivity of anchored kinase hinge-binding fragments” (Medchemcomm, 2014).

Assay [1] concerns the target Tyrosine-protein kinase HCK (Homo sapiens) (UniProt P08631). Nature of the assay: Inhibition of human HCK catalytic domain expressed in baculovirus assessed as substrate phosphorylation using fluorescence-labelled peptides as substrate at 8 uM after 90 mins by microfluidic peptide phosphorylation assay.
The target in assay [2] is Tyrosine-protein kinase Fyn (Homo sapiens) (UniProt P06241). As to the kind of experiment: Inhibition of human full length FYN expressed in baculovirus assessed as substrate phosphorylation using fluorescence-labelled peptides as substrate at 420 uM after 90 mins by microfluidic peptide phosphorylation assay.
Assay [3] concerns the target T1, Testis-specific serine/threonine-protein kinase 2 (Homo sapiens) (UniProt Q96PF2).
T1 sequence (whole entry): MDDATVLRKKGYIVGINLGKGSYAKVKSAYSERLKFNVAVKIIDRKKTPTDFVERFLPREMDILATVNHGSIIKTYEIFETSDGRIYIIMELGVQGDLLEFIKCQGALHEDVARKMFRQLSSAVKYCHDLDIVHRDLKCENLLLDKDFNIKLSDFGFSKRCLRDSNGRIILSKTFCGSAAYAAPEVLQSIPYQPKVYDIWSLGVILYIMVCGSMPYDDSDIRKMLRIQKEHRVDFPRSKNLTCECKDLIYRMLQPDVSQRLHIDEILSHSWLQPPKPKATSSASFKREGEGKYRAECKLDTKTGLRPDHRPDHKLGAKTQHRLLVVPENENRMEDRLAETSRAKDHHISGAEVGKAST
Nature of the assay: Inhibition of human full length TSSK2 expressed in baculovirus assessed as substrate phosphorylation using fluorescence-labelled peptides as substrate at 420 uM after 90 mins by microfluidic peptide phosphorylation assay.

The target of assay [4] is Protein kinase C theta type (Homo sapiens) (UniProt Q04759). As to the kind of experiment: Inhibition of human truncated PKC theta expressed in baculovirus assessed as substrate phosphorylation using fluorescence-labelled peptides as substrate at 0.2 uM after 90 mins by microfluidic peptide phosphorylation assay.
Assay [5] addresses Ribosomal protein S6 kinase alpha-5 (Homo sapiens) (UniProt O75582). As to the kind of experiment: Inhibition of human full length MSK1 expressed in baculovirus assessed as substrate phosphorylation using fluorescence-labelled peptides as substrate at 9 uM after 90 mins by microfluidic peptide phosphorylation assay.
Assay [6] deals with T2, Serine/threonine-protein kinase Chk1 (Homo sapiens) (UniProt O14757).
T2 sequence (whole entry): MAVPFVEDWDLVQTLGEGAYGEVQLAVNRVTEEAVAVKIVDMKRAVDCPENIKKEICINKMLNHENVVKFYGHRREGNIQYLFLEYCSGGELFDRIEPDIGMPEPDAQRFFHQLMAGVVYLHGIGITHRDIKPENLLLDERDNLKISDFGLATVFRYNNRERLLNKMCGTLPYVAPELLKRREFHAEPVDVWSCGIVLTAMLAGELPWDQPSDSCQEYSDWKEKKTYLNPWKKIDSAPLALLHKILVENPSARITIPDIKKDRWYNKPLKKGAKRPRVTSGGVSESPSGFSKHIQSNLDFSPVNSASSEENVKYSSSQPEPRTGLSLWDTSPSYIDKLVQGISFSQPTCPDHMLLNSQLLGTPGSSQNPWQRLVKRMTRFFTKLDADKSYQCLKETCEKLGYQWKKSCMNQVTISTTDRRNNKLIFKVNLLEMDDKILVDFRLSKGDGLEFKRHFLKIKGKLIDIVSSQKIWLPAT
Conditions: 9 uM.
Description: Inhibition of human full length CHK1 expressed in baculovirus assessed as substrate phosphorylation using fluorescence-labelled peptides as substrate at 9 uM after 90 mins by microfluidic peptide phosphorylation assay

The target of assay [7] is Protein kinase C eta type (Homo sapiens) (UniProt P24723). As to the kind of experiment: Inhibition of human truncated PKC eta expressed in baculovirus assessed as substrate phosphorylation using fluorescence-labelled peptides as substrate at 70 uM after 90 mins by microfluidic peptide phosphorylation assay.
Assay [8] deals with T3, Serine/threonine-protein kinase D1 (Homo sapiens) (UniProt Q15139).
T3 sequence (whole entry): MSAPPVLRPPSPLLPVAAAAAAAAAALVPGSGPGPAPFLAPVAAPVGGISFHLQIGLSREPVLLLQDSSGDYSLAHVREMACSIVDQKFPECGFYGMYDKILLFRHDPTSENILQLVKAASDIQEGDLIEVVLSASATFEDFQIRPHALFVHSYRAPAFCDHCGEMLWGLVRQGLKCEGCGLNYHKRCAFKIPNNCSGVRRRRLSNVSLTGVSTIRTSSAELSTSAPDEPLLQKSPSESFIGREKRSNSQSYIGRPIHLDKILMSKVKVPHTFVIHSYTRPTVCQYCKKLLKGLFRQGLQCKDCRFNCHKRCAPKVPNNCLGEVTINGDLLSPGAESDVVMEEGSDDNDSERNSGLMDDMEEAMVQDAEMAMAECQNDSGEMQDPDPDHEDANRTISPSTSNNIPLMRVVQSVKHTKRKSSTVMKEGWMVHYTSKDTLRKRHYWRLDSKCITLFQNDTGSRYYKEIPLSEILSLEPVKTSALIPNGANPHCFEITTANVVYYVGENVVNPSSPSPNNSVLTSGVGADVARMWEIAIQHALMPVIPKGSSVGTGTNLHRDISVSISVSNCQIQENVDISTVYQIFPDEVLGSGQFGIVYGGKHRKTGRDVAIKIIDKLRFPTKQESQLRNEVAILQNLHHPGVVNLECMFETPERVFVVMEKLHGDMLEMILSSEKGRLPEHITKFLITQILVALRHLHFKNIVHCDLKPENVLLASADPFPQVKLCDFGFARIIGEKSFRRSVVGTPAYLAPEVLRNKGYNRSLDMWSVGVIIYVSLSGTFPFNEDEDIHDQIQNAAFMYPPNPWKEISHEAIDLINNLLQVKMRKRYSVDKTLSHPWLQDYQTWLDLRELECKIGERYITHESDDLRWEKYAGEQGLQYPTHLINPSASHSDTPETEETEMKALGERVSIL
Nature of the assay: Inhibition of human full length PKD1 expressed in baculovirus assessed as substrate phosphorylation using fluorescence-labelled peptides as substrate at 70 uM after 90 mins by microfluidic peptide phosphorylation assay.

Assay [9] addresses Ribosomal protein S6 kinase alpha-3 (Homo sapiens) (UniProt P51812). As to the kind of experiment: Inhibition of human full length RSK2 expressed in baculovirus assessed as substrate phosphorylation using fluorescence-labelled peptides as substrate at 2 uM after 90 mins by microfluidic peptide phosphorylation assay.
For assay [10], the target named is Rho-associated protein kinase 2 (Homo sapiens) (UniProt O75116). As to the kind of experiment: Inhibition of human ROCK2 catalytic domain expressed in baculovirus assessed as substrate phosphorylation using fluorescence-labelled peptides as substrate at 95 uM after 90 mins by microfluidic peptide phosphorylation assay.
For assay [11], the target named is Fibroblast growth factor receptor 2 (Homo sapiens) (UniProt P21802). As to the kind of experiment: Inhibition of human FGFR2 catalytic domain expressed in baculovirus assessed as substrate phosphorylation using fluorescence-labelled peptides as substrate at 95 uM after 90 mins by microfluidic peptide phosphorylation assay.
For assay [12], the system named is Tyrosine-protein kinase ABL1 (Homo sapiens), P00519 [Q252H]. Nature of the assay: Inhibition of human truncated ABL Q252H mutant expressed in baculovirus assessed as substrate phosphorylation using fluorescence-labelled peptides as substrate at 1000 uM after 90 mins by microfluidic peptide phosphorylation assay.
The target of assay [13] is Fibroblast growth factor receptor 4 (Homo sapiens) (UniProt P22455). As to the kind of experiment: Inhibition of human FGFR4 catalytic domain expressed in baculovirus assessed as substrate phosphorylation using fluorescence-labelled peptides as substrate at […] after 90 mins by microfluidic peptide phosphorylation assay.

Rho-associated protein kinase 2 (Homo sapiens), sequence (O75116 whole entry, looked up, the tested form may be a part): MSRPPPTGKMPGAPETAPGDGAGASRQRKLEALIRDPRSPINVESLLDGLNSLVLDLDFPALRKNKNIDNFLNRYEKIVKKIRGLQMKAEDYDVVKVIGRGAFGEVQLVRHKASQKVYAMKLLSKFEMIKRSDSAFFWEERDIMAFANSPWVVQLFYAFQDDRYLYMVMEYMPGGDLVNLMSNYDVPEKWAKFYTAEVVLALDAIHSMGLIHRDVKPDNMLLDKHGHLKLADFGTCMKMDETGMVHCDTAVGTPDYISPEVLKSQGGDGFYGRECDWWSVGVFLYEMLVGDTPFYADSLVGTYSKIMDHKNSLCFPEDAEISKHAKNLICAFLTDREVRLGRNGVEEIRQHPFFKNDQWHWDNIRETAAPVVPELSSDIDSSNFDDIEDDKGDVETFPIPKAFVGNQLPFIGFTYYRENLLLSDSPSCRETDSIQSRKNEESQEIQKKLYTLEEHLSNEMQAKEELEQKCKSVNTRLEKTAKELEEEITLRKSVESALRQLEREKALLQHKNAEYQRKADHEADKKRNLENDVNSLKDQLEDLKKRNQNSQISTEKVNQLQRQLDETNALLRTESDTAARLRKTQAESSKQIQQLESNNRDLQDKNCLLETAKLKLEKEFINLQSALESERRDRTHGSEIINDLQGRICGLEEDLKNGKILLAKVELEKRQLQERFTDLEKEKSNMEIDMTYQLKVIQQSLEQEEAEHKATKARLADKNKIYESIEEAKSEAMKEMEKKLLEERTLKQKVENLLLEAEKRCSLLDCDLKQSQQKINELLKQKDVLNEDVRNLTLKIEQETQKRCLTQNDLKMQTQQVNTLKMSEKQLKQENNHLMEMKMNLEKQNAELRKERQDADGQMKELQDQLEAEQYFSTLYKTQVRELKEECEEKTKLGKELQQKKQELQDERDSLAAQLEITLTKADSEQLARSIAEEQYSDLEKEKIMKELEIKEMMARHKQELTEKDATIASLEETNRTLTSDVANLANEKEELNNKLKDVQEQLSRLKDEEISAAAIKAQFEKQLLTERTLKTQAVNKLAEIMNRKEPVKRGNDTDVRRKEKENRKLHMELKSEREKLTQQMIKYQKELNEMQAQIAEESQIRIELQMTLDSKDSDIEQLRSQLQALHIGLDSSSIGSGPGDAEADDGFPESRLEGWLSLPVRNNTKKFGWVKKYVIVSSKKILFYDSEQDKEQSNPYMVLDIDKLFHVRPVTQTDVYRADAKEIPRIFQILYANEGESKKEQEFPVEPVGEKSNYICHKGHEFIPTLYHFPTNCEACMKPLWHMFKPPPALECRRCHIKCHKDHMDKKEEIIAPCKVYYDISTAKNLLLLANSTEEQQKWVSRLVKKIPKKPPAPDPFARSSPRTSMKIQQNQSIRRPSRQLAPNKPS
Fibroblast growth factor receptor 2 (Homo sapiens), sequence (P21802 22-821 limits assumed): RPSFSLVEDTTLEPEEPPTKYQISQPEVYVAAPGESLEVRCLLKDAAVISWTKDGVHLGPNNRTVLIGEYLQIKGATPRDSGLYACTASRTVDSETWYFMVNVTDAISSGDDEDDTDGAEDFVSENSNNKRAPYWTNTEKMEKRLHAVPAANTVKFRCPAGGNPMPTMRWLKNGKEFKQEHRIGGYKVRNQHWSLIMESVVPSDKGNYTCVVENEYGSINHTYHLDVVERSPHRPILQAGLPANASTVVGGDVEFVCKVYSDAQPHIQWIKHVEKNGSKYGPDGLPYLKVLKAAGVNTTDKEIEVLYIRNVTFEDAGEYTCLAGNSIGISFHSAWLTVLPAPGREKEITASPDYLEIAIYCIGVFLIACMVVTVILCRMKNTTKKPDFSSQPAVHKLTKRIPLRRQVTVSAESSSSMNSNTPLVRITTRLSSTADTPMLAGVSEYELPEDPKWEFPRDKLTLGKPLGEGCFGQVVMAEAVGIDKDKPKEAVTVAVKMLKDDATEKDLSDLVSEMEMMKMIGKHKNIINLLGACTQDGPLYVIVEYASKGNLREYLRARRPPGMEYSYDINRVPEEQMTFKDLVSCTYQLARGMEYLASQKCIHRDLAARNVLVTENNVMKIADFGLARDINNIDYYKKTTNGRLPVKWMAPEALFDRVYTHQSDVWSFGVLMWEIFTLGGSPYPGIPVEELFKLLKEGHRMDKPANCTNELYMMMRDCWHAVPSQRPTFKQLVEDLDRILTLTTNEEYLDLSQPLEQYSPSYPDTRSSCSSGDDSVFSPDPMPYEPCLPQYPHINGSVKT
Ribosomal protein S6 kinase alpha-5 (Homo sapiens), sequence (O75582 whole entry, looked up): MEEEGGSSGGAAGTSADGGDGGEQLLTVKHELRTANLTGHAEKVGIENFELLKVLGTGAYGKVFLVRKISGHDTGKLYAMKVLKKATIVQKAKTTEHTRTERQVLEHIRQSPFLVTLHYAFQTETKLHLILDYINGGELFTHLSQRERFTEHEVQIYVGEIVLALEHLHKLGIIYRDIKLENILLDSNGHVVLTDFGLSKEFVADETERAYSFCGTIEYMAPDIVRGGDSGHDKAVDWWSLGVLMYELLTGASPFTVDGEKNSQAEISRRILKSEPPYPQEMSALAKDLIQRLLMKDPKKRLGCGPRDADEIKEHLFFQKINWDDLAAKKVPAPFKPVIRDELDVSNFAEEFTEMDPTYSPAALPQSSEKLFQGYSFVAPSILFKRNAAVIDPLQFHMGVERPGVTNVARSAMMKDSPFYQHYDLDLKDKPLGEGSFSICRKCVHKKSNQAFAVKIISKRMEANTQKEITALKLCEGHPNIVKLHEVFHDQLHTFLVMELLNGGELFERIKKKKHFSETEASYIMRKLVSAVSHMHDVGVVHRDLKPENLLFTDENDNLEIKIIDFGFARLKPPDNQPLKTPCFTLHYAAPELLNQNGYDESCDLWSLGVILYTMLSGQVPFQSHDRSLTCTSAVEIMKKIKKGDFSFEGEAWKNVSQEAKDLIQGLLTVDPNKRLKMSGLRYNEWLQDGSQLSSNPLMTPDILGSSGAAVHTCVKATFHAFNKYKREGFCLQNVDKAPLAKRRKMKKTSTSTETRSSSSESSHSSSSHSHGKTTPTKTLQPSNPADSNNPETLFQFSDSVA
Protein kinase C theta type (Homo sapiens), sequence (Q04759 whole entry, looked up, the tested form may be a part): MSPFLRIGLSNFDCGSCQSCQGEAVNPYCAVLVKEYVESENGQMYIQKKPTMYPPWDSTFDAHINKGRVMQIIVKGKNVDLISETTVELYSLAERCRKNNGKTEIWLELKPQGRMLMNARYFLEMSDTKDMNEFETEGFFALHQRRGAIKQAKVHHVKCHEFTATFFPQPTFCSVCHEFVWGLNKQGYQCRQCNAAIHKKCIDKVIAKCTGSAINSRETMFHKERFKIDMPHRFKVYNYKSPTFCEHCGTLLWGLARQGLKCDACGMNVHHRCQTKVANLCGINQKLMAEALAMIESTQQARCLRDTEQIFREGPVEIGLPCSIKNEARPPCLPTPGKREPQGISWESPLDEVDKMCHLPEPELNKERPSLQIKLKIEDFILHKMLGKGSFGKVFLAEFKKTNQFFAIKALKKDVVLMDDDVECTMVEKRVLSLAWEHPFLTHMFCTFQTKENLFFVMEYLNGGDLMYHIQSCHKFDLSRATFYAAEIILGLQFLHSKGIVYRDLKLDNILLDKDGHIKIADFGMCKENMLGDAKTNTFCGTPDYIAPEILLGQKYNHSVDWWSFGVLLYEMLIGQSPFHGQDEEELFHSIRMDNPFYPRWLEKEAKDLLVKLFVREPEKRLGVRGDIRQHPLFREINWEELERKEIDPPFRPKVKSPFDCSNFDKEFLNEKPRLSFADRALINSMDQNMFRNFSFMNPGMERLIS
Protein kinase C eta type (Homo sapiens), sequence (P24723 whole entry, the tested form may be a part): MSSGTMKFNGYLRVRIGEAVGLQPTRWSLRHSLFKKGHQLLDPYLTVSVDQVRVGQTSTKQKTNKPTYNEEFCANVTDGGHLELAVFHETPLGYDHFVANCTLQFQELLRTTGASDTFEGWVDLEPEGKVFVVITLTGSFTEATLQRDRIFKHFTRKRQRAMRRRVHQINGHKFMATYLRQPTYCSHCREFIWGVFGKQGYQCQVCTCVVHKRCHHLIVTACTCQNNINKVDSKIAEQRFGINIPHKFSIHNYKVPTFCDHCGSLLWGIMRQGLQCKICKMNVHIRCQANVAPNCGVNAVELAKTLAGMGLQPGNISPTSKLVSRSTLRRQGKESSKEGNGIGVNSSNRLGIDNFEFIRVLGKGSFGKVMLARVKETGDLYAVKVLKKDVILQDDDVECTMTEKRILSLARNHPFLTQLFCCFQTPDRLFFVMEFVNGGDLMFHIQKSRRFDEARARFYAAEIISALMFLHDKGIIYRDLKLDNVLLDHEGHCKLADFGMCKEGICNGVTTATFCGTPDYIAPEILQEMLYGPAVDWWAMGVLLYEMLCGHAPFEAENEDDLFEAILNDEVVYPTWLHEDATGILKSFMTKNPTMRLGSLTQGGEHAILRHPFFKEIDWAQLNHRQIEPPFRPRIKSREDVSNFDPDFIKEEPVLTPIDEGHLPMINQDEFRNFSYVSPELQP
Tyrosine-protein kinase Fyn (Homo sapiens), sequence (P06241 2-537 limits assumed): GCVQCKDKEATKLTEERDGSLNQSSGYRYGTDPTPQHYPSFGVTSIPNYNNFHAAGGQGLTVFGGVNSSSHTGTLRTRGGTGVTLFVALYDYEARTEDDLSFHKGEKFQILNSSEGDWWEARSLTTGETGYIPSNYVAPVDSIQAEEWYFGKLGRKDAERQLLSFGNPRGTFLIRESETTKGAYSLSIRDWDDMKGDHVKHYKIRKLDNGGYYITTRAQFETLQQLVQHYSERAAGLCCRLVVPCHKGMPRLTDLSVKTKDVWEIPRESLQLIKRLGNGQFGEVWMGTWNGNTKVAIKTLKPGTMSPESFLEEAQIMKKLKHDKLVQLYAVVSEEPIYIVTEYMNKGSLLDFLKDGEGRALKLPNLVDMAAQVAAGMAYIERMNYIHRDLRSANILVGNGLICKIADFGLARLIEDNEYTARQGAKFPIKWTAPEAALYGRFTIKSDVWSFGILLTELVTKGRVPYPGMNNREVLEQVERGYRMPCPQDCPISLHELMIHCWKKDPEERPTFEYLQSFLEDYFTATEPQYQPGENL

`NCC1CCN(c2ncnc3[nH]ccc23)CC1`: the inhibition in assay [1] turned out to be 19.5%. For the molecule `c1nc(N2CCOCC2)c2nc[nH]c2n1`, the inhibition in [2] amounted to 64.5%; in assay [3], 24.5%. As for `Clc1ccc(C2(c3ccc(-c4ncnc5[nH]cnc45)cc3)CCNCC2)cc1`, in assay [4], the inhibition was found to be 31.5%. Consider `NCC1CN(c2ncnc3[nH]c4cnccc4c23)CCO1` (stereo not drawn), for which the inhibition was 60% in [5] and 91% in assay [6]. Regarding `CNCc1ccc(-c2ncnc3[nH]cnc23)cc1`, the results for the inhibition in assay [7] and in [8] were 78.5% and 54.5%, respectively. As to `NC1CCN(c2ncnc3[nH]ccc23)CC1`, the inhibition in [9] turned out to be 2%.

`NCCc1ccc(-c2ncnc3[nH]cnc23)cc1`: the inhibition was 93.5% in assay [10] and 36% in [11]. As to `c1cnc2[nH]ccc2c1`, the inhibition in assay [12] is 29%. For the molecule `COC(=O)c1cnc(Nc2cnc(C#N)cn2)cc1NCC1CCNCC1`, in assay [13], the inhibition turned out to be 1.5%.
